Legend:
PI3Kγ [1] = biological target: T1, PI3Kγ (Homo sapiens, UniProt P48736); assay: PI3K inhibition assay, Protocol A (33P incorporation, hydrophobic membrane filter plate); format: biochemical; settings: 40 μM ATP, 65 μM PI(4,5)P2 diC8, 75 nM PI3Kγ, average if more than one result, read-out: PI3Kγ enzyme inhibition Ki
Protocol: Compounds were screened for their ability to inhibit PI3Kγ using one of the assays below. To each well of a 96 well polystyrene plate [Corning, Costar Item No. 3696], was added 1.5 μl of a compound of the invention (at various concentrations) along with 28.5 W of kinase buffer [50 mM HEPES (pH 7.4), 5 mM DTT, 5 mM MgCl2 and 50 mM NaCl] containing 137 μM phosphatidylinositol(4,5) bisphosphate diC8 [PI(4,5)P2; Echelon Biosciences, Cat. No. P-4508] and 158 nM PI3Ky. After mixing, 30 μl of kinase buffer containing 80 μM ATP was added to start the reaction. Final substrate concentrations in the assay were 50 mM HEPES (pH 7.4), 5 mM DTT, 5 mM MgCl2, 50 mM NaCl, 40 μM ATP (200 μCi/μmole ATP), 65 μM PI(4,5)P2 and 75 nM PI3Kγ. After 20 minutes at room temperature (25° C.), the reaction was stopped with 30 μl of kinase buffer containing 150 mM EDTA and 1.5 M ammonium sulfate. Each well of a 96 well hydrophobic membrane filter plate [Millipore, 0.45 μm hydrophobic membrane, Cat. No. […]] was washed with 100 μL wash buffer [50 mM HEPES (pH 7.4), 5 mM DTT, 5 mM MgCl2, 50 mM NaCl, 5 mM EDTA and 0.5 M ammonium sulfate]. 60 μL of the stopped assay was transferred to each well of the filter plate and soaked for 30 minutes. […] The filter plate was allowed to stand overnight prior to determining ^33P incorporation on a Perkin-Elmer Microbeta TriluxTM liquid scintillation counter and luminescence counter. […]

PI3Kγ [2] = biological target: T1, PI3Kγ; assay: PI3K inhibition assay, Protocol B (33P-ATP, glass fiber filter plate); format: biochemical; settings: Protocol B; 100 μM ATP, 46 μM PI(4,5)P2 diC16, 16.6 nM PI3Kγ; average if more than one result; read-out: PI3Kγ enzyme inhibition Ki
Protocol: Compounds were screened for their ability to inhibit PI3Kγ using one of the assays below.
To each well of a 96 well polystyrene plate [Corning Costar Item No. 3795], 61 μL of Reaction Mix [55 mM HEPES pH 7.5, 11 mM MgCl2, 27 mM NaCl, 5.5 mM DTT, 0.11 mg/mL BSA, 51 μM phosphatidylinositol(4,5)bisphosphate diC16 (PI(4,5)P2; Avanti Polar Lipids, Cat. No. 840046P) and 18 nM PI3Kγ] was added. Separately, ten 2.5-fold serial dilutions of compounds of the invention were prepared in 100% DMSO with the last two wells reserved for no inhibitor controls (enzyme+no compound and no enzyme control+no compound). 1 μL it of compound or DMSO alone was added by 12-channel hand pipet and incubated for 10 minutes at room temperature (25° C.). To initiate the reaction, 5 μl of ATP Mix [49 mM HEPES pH 7.5 and 1340 ^33P-ATP was added and allowed to incubate for 30 min. at 25° C. Final concentrations of the reaction were 50 mM HEPES 7.5, 10 mM MgCl2, 25 mM NaCl, 5 mM DTT, 0.1 mg/mL BSA, 46 μM PI(4,5)P2, 16.6 nM PI3Kγ, and 100 μM ATP. Final inhibitor concentrations ranged from 10 μM to 1 nM.
After incubation, 60 μL of the reaction was quenched by transferring to 504 of 20% TCA/Water in each well of a 96 well glass fiber filter plate [Millipore Cat. No. MAFBN0B50]. The plate was dried by vacuum and then washed five times in a Bio-Tek Instruments ELX-405 Auto Plate Washer with 150 μL of 5% TCA/Water. 50 μL of scintillation fluid was added to each well and the plate was read immediately on a Perkin-Elmer TopCount™ NXT liquid scintillation counter.
Inhibition data was background subtracted (no enzyme control+no inhibitor control) and fit to the competitive tight binding Ki equation described by Morrison and Stone. [J. F. Morrison and S. R. Stone, Comments Mol. Cell. Biophys. 2 (1985) 347-368].

T1 sequence (P48736 whole entry, species assumed): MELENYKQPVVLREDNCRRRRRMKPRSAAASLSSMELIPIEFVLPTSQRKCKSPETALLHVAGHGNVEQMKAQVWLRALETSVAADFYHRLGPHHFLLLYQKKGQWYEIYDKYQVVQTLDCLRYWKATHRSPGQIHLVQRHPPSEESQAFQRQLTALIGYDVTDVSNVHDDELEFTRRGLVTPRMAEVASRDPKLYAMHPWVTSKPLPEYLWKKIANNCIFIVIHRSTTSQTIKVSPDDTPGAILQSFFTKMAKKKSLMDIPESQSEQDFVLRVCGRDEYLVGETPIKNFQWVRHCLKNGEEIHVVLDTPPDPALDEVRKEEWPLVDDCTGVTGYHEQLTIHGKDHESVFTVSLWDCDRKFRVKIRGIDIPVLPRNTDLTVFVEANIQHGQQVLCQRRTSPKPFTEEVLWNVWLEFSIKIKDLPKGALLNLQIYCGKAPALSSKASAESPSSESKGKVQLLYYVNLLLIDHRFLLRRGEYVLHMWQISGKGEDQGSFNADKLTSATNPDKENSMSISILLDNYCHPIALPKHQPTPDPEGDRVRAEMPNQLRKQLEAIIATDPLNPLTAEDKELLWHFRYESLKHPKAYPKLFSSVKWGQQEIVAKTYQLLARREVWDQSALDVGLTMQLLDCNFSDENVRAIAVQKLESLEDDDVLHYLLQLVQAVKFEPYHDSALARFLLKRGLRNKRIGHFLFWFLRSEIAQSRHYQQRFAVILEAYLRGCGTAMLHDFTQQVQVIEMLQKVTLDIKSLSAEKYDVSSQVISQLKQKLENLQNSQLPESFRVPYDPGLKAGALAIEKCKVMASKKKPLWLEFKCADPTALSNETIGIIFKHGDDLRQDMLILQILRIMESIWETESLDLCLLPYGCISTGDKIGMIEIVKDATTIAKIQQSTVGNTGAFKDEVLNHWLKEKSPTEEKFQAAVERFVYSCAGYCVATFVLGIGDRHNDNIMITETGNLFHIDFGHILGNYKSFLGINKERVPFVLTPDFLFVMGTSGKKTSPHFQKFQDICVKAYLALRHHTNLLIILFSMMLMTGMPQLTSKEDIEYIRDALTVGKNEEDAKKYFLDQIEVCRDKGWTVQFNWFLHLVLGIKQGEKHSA

| SMILES | Ki (PI3Kγ [1]) | Ki (PI3Kγ [2]) |
| --- | --- | --- |
| CCOC(=O)c1ccc(-c2sc(NC(=O)C3CC3)nc2C)o1 [Compound 1, Ethyl 5-(2-(cyclopropanecarboxamido)-4-methylthiazol-5-yl)furan-2-carboxylate] | 1000 to 5000 nM | – |
| CC(=O)Nc1nc(C)c(-c2ccc(S(=O)(=O)N[C@@H]3c4ccccc4C[C@@H]3O)o2)s1 [Compound 73] | – | < 100 nM |
| CC(=O)Nc1nc(C)c(-c2ccc(S(=O)(=O)N[C@H]3c4ccccc4C[C@H]3O)o2)s1 [Compound 74] | – | < 100 nM |
